The values below come from article PMC9481533, “Structure-based discovery of small molecules that disaggregate Alzheimer’s disease tissue derived tau fibrils in vitro” (Nature Communications, 2022).

This test concerns the target crude AD brain extracts (tau seeds) in HEK293T tau biosensor cells (Homo sapiens, UniProt P10636). In words: Tau biosensor cell seeding assay, screen with crude AD brain extracts. It is filed as cell-based. As to conditions: 10 μM inhibitor on cells, seeds pre-incubated 16–18 h at 4 °C, individual replicates (n=3), DMSO control 10734.9/12808.5/11145.3. The source says: From the in silico screen, compounds were ranked and 46 were selected for further experimental validation based on the total binding energy of the ligand/fibril complex. The experimental assessment consisted of direct measures of fibril disassembly (Fig. 2d, e and Supplementary Table 3) and assessment of the seeding capability of the products of disassembled AD tau fibrils in a biosensor cell assay. Disaggregating molecules that produce active seeds are undesirable for therapy and are excluded from further study. HEK293T cells expressing CFP- or YFP-fused tau are transduced with exogenous AD tau fibrils. Externally applied AD-tau fibrils then induce the aggregation of the endogenous fluorescent tau, resulting in the formation of FRET-positive intracellular aggregates, visible as bright puncta by fluorescence microscopy (Fig. 2f). Automated image analysis of visible puncta provides an objective quantification of seeded aggregation. […] Although biosensors may be limited in reporting structural characteristics of fibril progeny, they offer exquisitely sensitive measures of tau seeding activity—the ability for fibrils to recruit monomeric protein into fibrillar form, which is thought to be the mechanism for tau spreading in AD.
Human autopsy samples were obtained by the Mayo Clinic Brain Bank and UCLA Pathology Department according to HHS regulations from patients consenting to autopsy. Samples were provided to the researchers of this study as anonymized tissues. For purification of paired helical filaments (PHFs) and straight filaments (SFs) from AD brain tissue, extractions were performed according to the previously published protocol without any modifications. […] For biosensor seeding assays with crude AD brain extracts, fresh-frozen tissue from neuropathologically confirmed AD cases was thawed and cut into a 0.2–0.3 g sections. Tissue was manually homogenized in a 15 ml disposable tube in 1 ml of 50 mM Tris, pH 7.4 with 150 mM NaCl, and then aliquoted to PCR tubes and sonicated in a cuphorn bath for 120 min under 30% power at 4 °C in a recirculating ice water bath, according to reference.
HEK293T cell lines stably expressing tau-K18 P301S-eYFP were obtained from Marc Diamond[25] and used without further characterization or authentication. […] Inhibitors were dissolved in DMSO. […] After twenty minutes, 10 µl of fibrils were added to 90 µl of tau biosensor cells. The number of seeded aggregates was determined by imaging the entire well of a 96-well plate in triplicate using a Celigo Image Cytometer (Nexcelom) in the YFP channel. The number of aggregates in a given image was determined using an ImageJ 2.3.0[50] script, which subtracts the background fluorescence from unseeded cells, and then counts the number of aggregates as peaks with fluorescence above the background using the built-in Particle Analyzer. The number of aggregates was normalized to the confluence of each well, and dose-response plots were generated by calculating the average and standard deviations from triplicate measurements.

“And” between values parts separate entries of the source, which are not always exact repeats. Equal values may be shown once.

Sequence of crude AD brain extracts (tau seeds) in HEK293T tau biosensor cells (P10636 623-695 limits assumed): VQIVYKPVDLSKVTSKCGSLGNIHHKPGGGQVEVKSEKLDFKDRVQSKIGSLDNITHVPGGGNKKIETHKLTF

On to `Oc1c(Cl)cc(Cl)c2cccnc12` [5,7-dichloro-8-quinolinol AKA Chloroxine, 5,7-dichloro-8-quinolinol], for which the “Number of seeded aggregates in tau biosensor cells (normalized to confluence), Fig. 2e” value (“Number … (normalized to confluence), Fig. 2e” below) was 8929.14 and 10028.6 and 22099.9.

`Cn1c(=O)n(C)c2cc3c(cc21)nc1c2cccc4cccc(c(=O)n31)c42` [CNS-1, 10,12-dimethyl-10,12-dihydro-7H,11H-benzo[de]imidazo[4',5':5,6]benzimidazo[2,1-a]isoquinoline-7,11-dione]: the “Number … (normalized to confluence), Fig. 2e” value (listed as 7850915) was 11080.3 and 15413.1 and 17191.

Turning to `CC1=C(C(=O)Nc2ccccn2)C(c2ccc(F)cc2)C2=C(CCCC2=O)N1` (centres unmarked) [CNS-4, 4-(4-fluorophenyl)-2-methyl-5-oxo-N-2-pyridinyl-1,4,5,6,7,8-hexahydro-3-quinolinecarboxamide], the “Number … (normalized to confluence), Fig. 2e” value (listed as 6317572) is 8103.61 and 7551.45 and 17671.3.

On to `COc1cccc(C2C(C(=O)Nc3ccccn3)=C(C)NC3=C2C(=O)CCC3)c1` (centres unmarked) [CNS-5, 4-(3-methoxyphenyl)-2-methyl-5-oxo-N-2-pyridinyl-1,4,5,6,7,8-hexahydro-3-quinolinecarboxamide], for which the “Number … (normalized to confluence), Fig. 2e” value (listed as 6327117) is 5790.63 and 5091.84 and 10386.8. Consider `CC1=C(C(=O)Nc2cccc(C)n2)C(c2ccccc2C)C2=C(CCCC2=O)N1` (centres unmarked) [CNS-6, 2-methyl-4-(2-methylphenyl)-N-(6-methyl-2-pyridinyl)-5-oxo-1,4,5,6,7,8-hexahydro-3-quinolinecarboxamide], for which the “Number … (normalized to confluence), Fig. 2e” value (listed as 6343767) was 6727.54 and 6497.71 and 11400.

Consider `Cc1ccc(S(=O)(=O)N(C(F)F)C(C)(C)C)cc1` [CNS-9, N-(tert-butyl)-N-(difluoromethyl)-4-methylbenzenesulfonamide], for which the “Number … (normalized to confluence), Fig. 2e” value (listed as 6933498) was 6268.06 and 9513.63 and 13394.2. For the molecule `O=C(c1cc2cc(Br)ccc2oc1=O)N1CCc2ccccc2C1` [CNS-10, 6-bromo-3-(3,4-dihydro-2(1H)-isoquinolinylcarbonyl)-2H-chromen-2-one], for the setting “listed as 6991358”, the “Number … (normalized to confluence), Fig. 2e” value is 4869.84 and 6105.12 and 9256.09.

As to `CC(=O)Nc1cc(-c2nn(C)c(=O)c3ccccc23)ccc1N1CCCCC1` [CNS-19, N-[5-(3-methyl-4-oxo-3,4-dihydro-1-phthalazinyl)-2-(1-piperidinyl)phenyl]acetamide], the “Number … (normalized to confluence), Fig. 2e” value (listed as 7520752) was 9057.73 and 5534.89 and 16287.3.

Take `N#Cc1c2c(n3cc4ccccc4cc13)C(=O)c1ccccc1C2=O` [CNS-20, 5,14-dioxo-5,14-dihydrobenzo[5,6]indolo[1,2-b]isoquinoline-13-carbonitrile]: where the note is “listed as 7663820”, the “Number … (normalized to confluence), Fig. 2e” value was 40070.2 and 48758.2 and 61897.7. As to `Cc1ccc(N2C(=O)CC(n3cnc4ccccc43)C2=O)c(C)c1` (centres unmarked) [CNS-22, 3-(1H-benzimidazol-1-yl)-1-(2,4-dimethylphenyl)-2,5-pyrrolidinedione], the “Number … (normalized to confluence), Fig. 2e” value (listed as 7729218) is 7077.98 and 8551.58 and 10715.2. On to `Cc1cccc(-c2noc(-c3ccccc3C(=O)NCc3cccnc3)n2)c1` [CNS-24, 2-[3-(3-methylphenyl)-1,2,4-oxadiazol-5-yl]-N-(3-pyridinylmethyl)benzamide], for which, under “listed as 9002758”, the “Number … (normalized to confluence), Fig. 2e” value is 4798.71 and 2194.24 and 9734.93. Turning to `COc1ccccc1NC(=O)c1cc2c(ccc3ccccc32)oc1=O` [CNS-25, N-(2-methoxyphenyl)-3-oxo-3H-benzo[f]chromene-2-carboxamide], for the setting “listed as 5876327”, the “Number … (normalized to confluence), Fig. 2e” value is 13235.2 and 9679.79 and 19134.9. For `CO[C@H]1C[C@@H]2CC[C@@H](C)[C@@](O)(O2)C(=O)C(=O)N2CCCC[C@H]2C(=O)O[C@H]([C@H](C)C[C@@H]2CC[C@@H](OCCO)[C@H](OC)C2)CC(=O)[C@H](C)/C=C(\C)[C@@H](O)[C@@H](OC)C(=O)[C@H](C)C[C@H](C)/C=C/C=C/C=C/1C` [FDA-A-7, Everolimus], the “Number … (normalized to confluence), Fig. 2e” value is 3758.68 and 4378.2 and 11639.6. With `C[C@]12C=CC(=O)N[C@@H]1CC[C@@H]1[C@@H]2CC[C@]2(C)[C@@H](C(=O)Nc3cc(C(F)(F)F)ccc3C(F)(F)F)CC[C@@H]12` [FDA-A-9, Dutasteride], the “Number … (normalized to confluence), Fig. 2e” value was 6197.61 and 4567.33 and 9824.67. Still for that read-out and setting: as for `COc1cc([C@@H]2c3cc4c(cc3[C@@H](O[C@@H]3O[C@@H]5CO[C@@H](c6cccs6)O[C@H]5[C@H](O)[C@H]3O)[C@H]3COC(=O)[C@H]23)OCO4)cc(OC)c1O` [FDA-A-11, Teniposide], the figure is 28315 and 23778 and 42223.8. Regarding `C/C=C(/C)C(=O)O[C@H]1C(C)=C[C@]23C(=O)[C@@H](C=C(CO)[C@@H](O)[C@]12O)[C@H]1[C@@H](C[C@H]3C)C1(C)C` [FDA-A-13, Ingenol mebutate], the “Number … (normalized to confluence), Fig. 2e” value (listed as ingenol-3-angelate) was 10027.6 and 8367.28 and 13011.7. Turning to `CC1=NN(c2ccc(C)c(C)c2)C(=O)/C1=N\Nc1cccc(-c2cccc(C(=O)O)c2)c1O` [FDA-A-15, Eltrombopag], the “Number … (normalized to confluence), Fig. 2e” value is 3758.35 and 8279.6 and 8614.09.

As to `Cc1nc2c([nH]1)-c1ccccc1N(C(=O)c1ccc(NC(=O)c3ccccc3-c3ccccc3)cc1)CC2` [FDA-A-16, Conivaptan], the “Number … (normalized to confluence), Fig. 2e” value was 15272 and 13297.5 and 27692.

`Cc1ccc(-n2nccn2)c(C(=O)N2CCN(c3nc4cc(Cl)ccc4o3)CC[C@H]2C)c1` [FDA-A-20, Suvorexant]: the “Number … (normalized to confluence), Fig. 2e” value was 10609.4 and 12014.6 and 14701.5. As to `CN1C[C@H](C(=O)N[C@]2(C)O[C@@]3(O)[C@@H]4CCCN4C(=O)[C@H](Cc4ccccc4)N3C2=O)C[C@@H]2c3cccc4[nH]cc(c34)C[C@H]21` [FDA-A-23, Dihydroergotamine], the “Number … (normalized to confluence), Fig. 2e” value (listed as dihydroergotamine mesylate) is 6873.71 and 6659.65 and 11949.1.

In the case of `COc1ccc2c(c1)C(=O)N(CCc1ccc(S(=O)(=O)NC(=O)NC3CCCCC3)cc1)C(=O)C2(C)C` [FDA-R-2, Gliquidone], the “Number … (normalized to confluence), Fig. 2e” value is 7523.16 and 6557.51 and 13245. With `CNS(=O)(=O)CCc1ccc2[nH]cc(C3CCN(C)CC3)c2c1` [FDA-R-4, Naratriptan], the “Number … (normalized to confluence), Fig. 2e” value is 8578.9 and 6012.3 and 15427. The same measure, in the same setting: as for `CNC(=C[N+](=O)[O-])NCCSCc1csc(CN(C)C)n1` [FDA-R-7, Nizatidine], the figure is 6548.12 and 9220.9 and 15017.2.
